IC50 data for 18 compounds are collected here from patent US20240150325A1, “NOVEL COMPOUND AS PROTEIN KINASE INHIBITORS” (LG CHEM, LTD., priority 2021, published 2024).

Each structure is given as a SMILES string.

One assay addresses RON (Homo sapiens, UniProt Q04912). As to the kind of experiment: Evaluation of inhibitory activity to RON. The class given is biochemical. An excerpt: (§1) Experimental Example 1. Evaluation of Inhibitory Activity to RON and MET
For the next assay, the target named is MET (Homo sapiens, UniProt P08581). Briefly: Evaluation of inhibitory activity to MET. The class given is biochemical.
Excerpt: as §1

Sequence of RON (Q04912 25-1400): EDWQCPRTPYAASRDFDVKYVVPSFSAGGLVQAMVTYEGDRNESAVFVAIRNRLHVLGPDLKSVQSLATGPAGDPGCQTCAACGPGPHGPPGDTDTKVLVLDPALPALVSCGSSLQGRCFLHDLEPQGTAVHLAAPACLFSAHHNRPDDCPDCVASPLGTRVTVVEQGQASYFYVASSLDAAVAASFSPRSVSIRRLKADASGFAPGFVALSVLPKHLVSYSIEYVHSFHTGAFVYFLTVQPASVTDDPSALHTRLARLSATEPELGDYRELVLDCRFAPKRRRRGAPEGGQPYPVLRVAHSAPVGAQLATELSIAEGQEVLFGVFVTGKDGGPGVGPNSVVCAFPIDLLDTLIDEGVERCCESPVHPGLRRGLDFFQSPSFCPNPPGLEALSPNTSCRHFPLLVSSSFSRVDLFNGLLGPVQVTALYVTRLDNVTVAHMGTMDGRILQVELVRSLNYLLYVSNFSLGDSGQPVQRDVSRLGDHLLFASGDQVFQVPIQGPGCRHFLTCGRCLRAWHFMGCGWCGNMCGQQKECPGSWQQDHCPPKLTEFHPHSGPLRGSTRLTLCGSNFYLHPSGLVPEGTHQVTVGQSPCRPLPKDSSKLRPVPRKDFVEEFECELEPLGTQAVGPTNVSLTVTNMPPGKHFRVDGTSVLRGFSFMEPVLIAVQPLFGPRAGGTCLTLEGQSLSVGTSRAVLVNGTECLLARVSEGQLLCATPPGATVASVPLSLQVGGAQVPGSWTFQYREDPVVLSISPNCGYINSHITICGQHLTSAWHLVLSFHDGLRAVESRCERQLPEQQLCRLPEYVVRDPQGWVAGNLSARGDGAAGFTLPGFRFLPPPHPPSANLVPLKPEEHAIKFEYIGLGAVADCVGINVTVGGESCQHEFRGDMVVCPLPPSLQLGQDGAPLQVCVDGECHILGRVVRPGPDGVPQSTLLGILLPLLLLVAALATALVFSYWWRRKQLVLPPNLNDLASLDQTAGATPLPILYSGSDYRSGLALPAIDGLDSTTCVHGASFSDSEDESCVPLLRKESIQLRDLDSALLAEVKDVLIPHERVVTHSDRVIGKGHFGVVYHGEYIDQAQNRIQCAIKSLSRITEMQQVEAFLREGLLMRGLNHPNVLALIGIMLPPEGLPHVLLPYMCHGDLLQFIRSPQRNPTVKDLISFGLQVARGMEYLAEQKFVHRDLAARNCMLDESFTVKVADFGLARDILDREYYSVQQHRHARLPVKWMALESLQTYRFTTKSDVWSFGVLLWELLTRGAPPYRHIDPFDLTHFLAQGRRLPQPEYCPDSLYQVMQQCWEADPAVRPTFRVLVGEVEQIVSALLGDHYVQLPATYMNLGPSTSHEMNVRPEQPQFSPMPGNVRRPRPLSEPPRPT
Sequence of MET (P08581 25-1390): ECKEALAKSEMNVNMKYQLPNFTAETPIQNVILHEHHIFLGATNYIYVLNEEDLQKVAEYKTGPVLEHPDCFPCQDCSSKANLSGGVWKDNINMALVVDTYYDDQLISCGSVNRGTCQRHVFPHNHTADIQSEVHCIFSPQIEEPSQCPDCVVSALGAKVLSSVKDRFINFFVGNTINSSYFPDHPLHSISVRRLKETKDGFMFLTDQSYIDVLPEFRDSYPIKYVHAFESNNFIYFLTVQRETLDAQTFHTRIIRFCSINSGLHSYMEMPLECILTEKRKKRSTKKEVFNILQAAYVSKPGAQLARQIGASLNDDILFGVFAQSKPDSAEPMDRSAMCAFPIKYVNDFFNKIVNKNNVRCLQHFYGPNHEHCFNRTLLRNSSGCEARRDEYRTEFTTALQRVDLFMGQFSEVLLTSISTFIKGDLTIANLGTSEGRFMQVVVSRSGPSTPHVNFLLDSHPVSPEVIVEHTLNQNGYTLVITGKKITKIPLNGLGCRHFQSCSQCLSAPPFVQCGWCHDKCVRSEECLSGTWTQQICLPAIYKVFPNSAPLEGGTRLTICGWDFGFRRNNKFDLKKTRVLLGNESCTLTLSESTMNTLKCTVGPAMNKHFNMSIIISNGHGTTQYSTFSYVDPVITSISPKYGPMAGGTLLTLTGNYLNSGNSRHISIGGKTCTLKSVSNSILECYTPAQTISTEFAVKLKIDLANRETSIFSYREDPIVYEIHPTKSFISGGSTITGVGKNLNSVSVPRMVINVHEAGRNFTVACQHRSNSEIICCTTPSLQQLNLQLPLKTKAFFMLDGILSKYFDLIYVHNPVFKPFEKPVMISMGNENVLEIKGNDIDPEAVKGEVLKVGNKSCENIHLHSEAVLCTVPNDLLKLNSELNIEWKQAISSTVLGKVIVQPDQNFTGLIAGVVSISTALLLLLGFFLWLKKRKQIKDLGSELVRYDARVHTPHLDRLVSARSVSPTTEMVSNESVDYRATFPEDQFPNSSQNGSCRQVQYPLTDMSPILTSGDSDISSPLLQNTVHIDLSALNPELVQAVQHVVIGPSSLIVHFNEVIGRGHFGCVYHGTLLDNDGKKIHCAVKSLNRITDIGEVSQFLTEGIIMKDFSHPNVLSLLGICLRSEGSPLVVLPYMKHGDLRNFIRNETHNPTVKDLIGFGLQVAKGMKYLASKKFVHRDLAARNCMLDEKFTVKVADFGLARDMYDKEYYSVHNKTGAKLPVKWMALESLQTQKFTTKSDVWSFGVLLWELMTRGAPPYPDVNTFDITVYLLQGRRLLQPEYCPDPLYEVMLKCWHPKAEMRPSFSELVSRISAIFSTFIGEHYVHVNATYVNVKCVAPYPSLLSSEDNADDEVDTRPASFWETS

As usually defined, the IC50 is the point on the concentration scale where inhibition reaches its midpoint. With `CCOc1ccn(-c2ccc(F)cc2)c(=O)c1C(=O)Nc1ccc(Nc2ccc(O)c(-c3ccnc(N)n3)c2)c(F)c1` [Example 28, N-(4-((3-(2-aminopyrimidin-4-yl)-4-hydroxyphenyl)amino)-3-fluorophenyl)-4-ethoxy-1-(4-fluorophenyl)-2-oxo-1,2-dihydropyridin-3-carboxamide], the concentration for half-maximal inhibition (IC50) came to 1170 nM against RON and 180 nM on MET.
In the case of `Cc1ccc(C(=O)Nc2ccc(Nc3ccc(O)c(-c4ccnc(N)n4)c3)c(F)c2)c(=O)n1-c1ccc(F)cc1` [Example 30, N-(4-((3-(2-aminopyrimidin-4-yl)-4-hydroxyphenyl)amino)-3-fluorophenyl)-1-(4-fluorophenyl)-6-methyl-2-oxo-1,2-dihydropyridin-3-carboxamide], the half-inhibitory concentration (IC50) on RON is 248 nM; on MET, 49 nM.
Turning to `CCOc1ccn(-c2ccc(F)cc2)c(=O)c1C(=O)Nc1ccc(Nc2ccc(O)c(-c3ccnc(N)n3)c2)cc1F` [Example 34, N-(4-((3-(2-aminopyrimidin-4-yl)-4-hydroxyphenyl)amino)-2-fluorophenyl)-4-ethoxy-1-(4-fluorophenyl)-2-oxo-1,2-dihydropyridin-3-carboxamide], the concentration for half-maximal inhibition (IC50) on RON amounted to 2280 nM; at MET, 552 nM.
For `CCOc1ccn(-c2ccc(F)cc2)c(=O)c1C(=O)Nc1ccc(Oc2ccc(O)c(-c3ccnc(N)n3)c2)c(F)c1` [Example 39, N-(4-(3-(2-aminopyrimidin-4-yl)-4-hydroxyphenoxy)-3-fluorophenyl)-4-ethoxy-1-(4-fluorophenyl)-2-oxo-1,2-dihydropyridin-3-carboxamide], the IC50 amounted to 86 nM against RON and 27 nM against MET.
Taken in the same sequence, the figures for `Nc1nccc(-c2cc(Oc3ccc(NC(=O)C4(C(=O)Nc5ccc(F)cc5)CC4)cc3F)ccc2O)n1` [Example 41, N-(4-(3-(2-aminopyrimidin-4-yl)-4-hydroxyphenoxy)-3-fluorophenyl)-N-(4-fluorophenyl)cyclopropan-1,1-dicarboxamide] were 362 nM and 71 nM.
For `COc1ccn(-c2ccc(F)cc2)c(=O)c1C(=O)Nc1ccc(Oc2ccc(O)c(-c3ccnc(N)n3)c2)c(F)c1` [Example 42, N-(4-(3-(2-aminopyrimidin-4-yl)-4-hydroxyphenoxy)-3-fluorophenyl)-1-(4-fluorophenyl)-4-methoxy-2-oxo-1,2-dihydropyridin-3-carboxamide], the concentration for half-maximal inhibition (IC50) against RON is 355 nM; against MET, 53 nM.
In the case of `Cc1c(C(=O)Nc2ccc(Oc3ccc(O)c(-c4ccnc(N)n4)c3)c(F)c2)c(=O)n(-c2ccccc2)n1C` [Example 43, N-(4-(3-(2-aminopyrimidin-4-yl)-4-hydroxyphenoxy)-3-fluorophenyl)-1,5-dimethyl-3-oxo-2-phenyl-2,3-dihydro-1H-pyrazol-4-carboxamide], the IC50 against RON was determined as 279 nM; against MET, 48 nM.
Consider `Nc1nccc(-c2cc(Oc3ccc(NC(=O)c4cc(Br)cn(-c5ccc(F)cc5)c4=O)cc3F)ccc2O)n1` [Example 44, N-(4-(3-(2-aminopyrimidin-4-yl)-4-hydroxyphenoxy)-3-fluorophenyl)-5-bromo-1-(4-fluorophenyl)-2-oxo-1,2-dihydropyridin-3-carboxamide], for which the concentration for half-maximal inhibition (IC50) at RON turned out to be 137 nM; at MET, 46 nM.
In the same order, the values of `Nc1nccc(-c2cc(Oc3ccc(NC(=O)c4cccn(-c5ccc(F)cc5)c4=O)cc3F)ccc2O)n1` [Example 46, N-(4-(3-(2-aminopyrimidin-4-yl)-4-hydroxyphenoxy)-3-fluorophenyl)-1-(4-fluorophenyl)-2-oxo-1,2-dihydropyridin-3-carboxamide] are 241 nM and 54 nM.
As to `Cn1cc(-c2cc(C(=O)Nc3ccc(Oc4ccc(O)c(-c5ccnc(N)n5)c4)c(F)c3)c(=O)n(-c3ccc(F)cc3)c2)cn1` [Example 47, N-(4-(3-(2-aminopyrimidin-4-yl)-4-hydroxyphenoxy)-3-fluorophenyl)-1-(4-fluorophenyl)-5-(1-methyl-1H-pyrazol-4-yl)-2-oxo-1,2-dihydropyridin-3-carboxamide], the 50% inhibitory concentration (IC50) on RON worked out at 882 nM; against MET, 179 nM.
Take `Nc1nccc(-c2cc(Oc3ccc(NC(=O)c4cc(C5CC5)cn(-c5ccc(F)cc5)c4=O)cc3F)ccc2O)n1` [Example 48, N-(4-(3-(2-aminopyrimidin-4-yl)-4-hydroxyphenoxy)-3-fluorophenyl)-5-cyclopropyl-1-(4-fluorophenyl)-2-oxo-1,2-dihydropyridin-3-carboxamide]: the IC50 against RON was determined as 23 nM; at MET, 64 nM.
In the case of `Nc1nccc(-c2cc(Oc3ccc(NC(=O)c4ccc(C(F)(F)F)n(-c5ccc(F)cc5)c4=O)cc3F)ccc2O)n1` [Example 49, N-(4-(3-(2-aminopyrimidin-4-yl)-4-hydroxyphenoxy)-3-fluorophenyl)-1-(4-fluorophenyl)-2-oxo-6-(trifluoromethyl)-1,2-dihydropyridin-3-carboxamide], the IC50 on RON worked out at 163 nM; at MET it was 67 nM.
In the same order, the values of `Nc1nccc(-c2cc(Oc3ccc(NC(=O)c4ccc(CO)n(-c5ccc(F)cc5)c4=O)cc3F)ccc2O)n1` [Example 50, N-(4-(3-(2-aminopyrimidin-4-yl)-4-hydroxyphenoxy)-3-fluorophenyl)-1-(4-fluorophenyl)-6-(hydroxymethyl)-2-oxo-1,2-dihydropyridin-3-carboxamide] are 133 nM and 12 nM.
As for `Cc1c(C(=O)Nc2ccc(Oc3ccc(O)c(-c4ccnc(N)n4)c3)c(F)c2)c(=O)n(-c2ccccc2)n1CC(C)(C)O` [Example 52, N-(4-(3-(2-aminopyrimidin-4-yl)-4-hydroxyphenoxy)-3-fluorophenyl)-1-(2-hydroxy-2-methylpropyl)-5-methyl-3-oxo-2-phenyl-2,3-dihydro-1H-pyrazol-4-carboxamide], the half-maximal inhibitory concentration (IC50) at RON is 876 nM; on MET, 115 nM.
Regarding `CCOc1ccn(-c2ccc(F)cc2)c(=O)c1C(=O)Nc1ccc(Oc2ccc(O)c(-c3ccncn3)c2)c(F)c1` [Example 54, 4-Ethoxy-N-(3-fluoro-4-(4-hydroxy-3-(pyrimidin-4-yl)phenoxy)phenyl)-1-(4-fluorophenyl)-2-oxo-1,2-dihydropyridin-3-carboxamide], the IC50 came out at 351 nM on RON and 67 nM at MET.
Take `O=C(Nc1ccc(F)cc1)C1(C(=O)Nc2ccc(Oc3ccc(O)c(-c4ccncn4)c3)c(F)c2)CC1` [Example 56, N-(3-fluoro-4-(4-hydroxy-3-(pyrimidin-4-yl)phenoxy)phenyl)-N-(4-fluorophenyl)cyclopropan-1,1-dicarboxamide]: the 50% inhibitory concentration (IC50) was 3350 nM at RON and 281 nM at MET.
In the same order, the values of `CCOc1ccn(-c2ccc(F)cc2)c(=O)c1C(=O)Nc1ccc(Oc2ccc(O)c(-c3cc[nH]n3)c2)c(F)c1` [Example 57, 4-Ethoxy-N-(3-fluoro-4-(4-hydroxy-3-(1H-pyrazol-3-yl)phenoxy)phenyl)-1-(4-fluorophenyl)-2-oxo-1,2-dihydropyridin-3-carboxamide] are 4480 nM and 160 nM.
`Cc1ccc(C(=O)Nc2ccc(Oc3ccc(O)c(-c4cc[nH]n4)c3)c(F)c2)c(=O)n1-c1ccc(F)cc1` [Example 58, N-(3-Fluoro-4-(4-hydroxy-3-(1H-pyrazol-3-yl)phenoxy)phenyl)-1-(4-fluorophenyl)-6-methyl-2-oxo-1,2-dihydropyridin-3-carboxamide]: the IC50 against RON was determined as 1450 nM; against MET it was 99 nM.
